Data as given in ChEMBL document CHEMBL1155996, “Improving potency and selectivity of a new class of non-Zn-chelating MMP-13 inhibitors” (Bioorg Med Chem Lett, 2009).
≈ marks a conversion by molar mass, not a printed value.

Tests used:
[1] = Solubility of compound at pH 4.5 by high throughput screening; assay type: physicochemical; settings: buffer
[2] = Solubility of compound at pH 7.4 by high throughput screening; assay type: physicochemical; settings: buffer
Collagenase 3 = Collagenase 3 (Homo sapiens, UniProt P45452); assay: Inhibition of human MMP13 by FRET assay

Row | Structure (SMILES) | solubility [1] | solubility [2] | IC50 (Collagenase 3)
1 | CNC(=O)[C@@H](NC(=O)c1ccc(-c2ccc(OCc3cc4ccccc4o3)cn2)o1)C1CCCCC1 | < 0.1 µg/mL | 0.1 µg/mL (≈ 0.205 µM) | 
2 | CNC(=O)[C@@H](NC(=O)c1ccc(-c2ccc(OCc3cc(C)n[nH]3)cn2)o1)C1CCCCC1 | 25 µg/mL (≈ 55.4 µM) | 31 µg/mL (≈ 68.7 µM) | 
3 | CNC(=O)[C@@H](NC(=O)c1ccc(-c2ccc(Oc3ccccc3)cc2)o1)C1CCCCC1 |  |  | > 50 µM
4 | CNC(=O)[C@@H](NC(=O)c1ccc(-c2ccc(NS(C)(=O)=O)cc2)o1)C1CCCCC1 | 53 µg/mL (≈ 122 µM) | 61 µg/mL (≈ 141 µM) | 
5 | CNC(=O)[C@@H](NC(=O)c1ccc(-c2ccc(OCc3cccc(C)n3)cn2)o1)C1CCCCC1 | 7.4 µg/mL (≈ 16 µM) | 3.4 µg/mL (≈ 7.35 µM) | 
6 | CNC(=O)[C@@H](NC(=O)c1ccc(-c2ccc(Cl)cn2)o1)C1CCCCC1 | 35 µg/mL (≈ 93.1 µM) | 37 µg/mL (≈ 98.4 µM) | 
7 | CCOc1ccc(-c2ccc(C(=O)N[C@H](C(=O)NC)C3CCCCC3)o2)nc1 | 33 µg/mL (≈ 85.6 µM) | > 49 µg/mL | 
8 | CNC(=O)[C@@H](NC(=O)c1ccc(-c2ccc(S(=O)(=O)NC)cc2)o1)C1CCCCC1 | 50 µg/mL (≈ 115 µM) | 52 µg/mL (≈ 120 µM) | 
9 | CNC(=O)c1ccc(-c2ccc(C(=O)N[C@H](C(=O)NC)C3CCCCC3)o2)cc1 | 16 µg/mL (≈ 40.3 µM) | 17 µg/mL (≈ 42.8 µM) | 6 µM
10 | CNC(=O)[C@@H](NC(=O)c1ccc(-c2ccc(NC(C)=O)cc2)o1)C1CCCCC1 | 15 µg/mL (≈ 37.7 µM) | 17 µg/mL (≈ 42.8 µM) | 1.55 µM
11 | CNC(=O)[C@@H](NC(=O)c1ccc(-c2ccc(OCc3ccn[nH]3)cn2)o1)C1CCCCC1 | 39 µg/mL (≈ 89.1 µM) | 43 µg/mL (≈ 98.3 µM) | 
12 | CNC(=O)[C@@H](NC(=O)c1ccc(-c2ccc(Cl)cc2)o1)C1CCCCC1 | 1.5 µg/mL (≈ 4 µM) | 1.9 µg/mL (≈ 5.07 µM) | 
13 | CNC(=O)[C@@H](NC(=O)c1ccc(-c2ccc(OCc3cc(C)n(C)n3)cn2)o1)C1CCCCC1 | > 57 µg/mL | > 57 µg/mL | 
14 | CNC(=O)[C@@H](NC(=O)c1ccc(-c2ccc(OC)cc2)o1)C1CCCCC1 | 1.4 µg/mL (≈ 3.78 µM) | 1.6 µg/mL (≈ 4.32 µM) | 
